{
  "source": "patent US11339405B2",
  "about": "“Kit and method for producing induced embryonic neural progenitors” (priority 2017, dated 2022)",
  "key": {"[1]": {"tested_on": "AD-iENP-derived neurons", "assay": "pTAU (AT8) ICC in AD-iENP-derived neurons, AD drug testing", "type": "cell-based, human", "conditions": "AD-iENP-derived neurons (AD1, APOE4/E4), treated for 2 days at 7 days after cortical differentiation; vs DMSO", "protocol": "General neural differentiation was examined using differentiation media [Neurobasal, B27 supplement, 1% NEAA, 2 mM glutamine, 1 mM sodium pyruvate (Invitrogen), 300 μg/ml dbcAMP, 50 μM ascorbic acid (Sigma), 20 ng/ml BDNF, 20 ng/ml GDNF, 50 ng/ml NGF (Peprotech)], while specific neuronal differentiation were examined using cortical neuronal differentiation media, dopaminergic neuronal differentiation media, and PNS neuronal differentiation media [cortical neuronal differentiation media: Neurobasal, N2 supplement, B27 supplement (Invitrogen), 100 ng/ml SHH, 125 ng/ml Noggin, 250 ng/ml DKK1, 10 ng/ml BDNF, 10 ng/ml bFGF (R&D), 2 μM XAV939, 100 nM LDN93189, 10 μM SB431542, 200 μM ascorbic acid, 200 μM dbcAMP (Sigma); dopaminergic neuronal differentiation media: DMEM/F12, N2 supplement (Invitrogen), 20 ng/ml BDNF, 200 ng/ml SHH, 100 ng/ml FGF8P (R&D), 200 μM ascorbic acid (Sigma); PNS neuronal differentiation media: DMEM/F12, N2 supplement (Invitrogen), 3 μM CHIR99021, 10 μM SU5402, 10 μM DAPT, 200 μM dbcAMP]. For AD drug testing, AD- and control-iENPs were subjected to cortical differentiation. At 7 days after differentiation, cells were treated with SB415286, 1-Azakenpaullone (Selleckchem), or DMSO (Sigma) for 2 days. […]\nThe ICC procedure was performed as previously described. […] Signals were recorded using a Zeiss microscope and Spot software. […]"}, "[2]": {"tested_on": "HD-iENPs", "assay": "γH2AX ICC (DNA damage) in HD-iENPs", "type": "cell-based, human", "conditions": "vs vehicle (DMSO)"}, "[3]": {"tested_on": "HD-iENP-derived neurons", "assay": "γH2AX ICC (DNA damage) in HD-iENP-derived neurons", "type": "cell-based, human", "conditions": "neuronal derivatives of HD-iENPs; vs vehicle (DMSO)"}, "[4]": {"tested_on": "TTX-sensitive sodium channels", "type": "cell-based, human"}, "[5]": {"tested_on": "FBs infected with virus encoding the 6 or 7TF combinations"}},
  "note": "Entries after “also recorded” stand apart in the source; their conditions may differ.",
  "data": [
    {"compound": "O=C1Cc2c([nH]c3ccc(Br)cc23)-c2ncccc2N1", "note": "[1-Aza, 1-Azakenpaullone]", "values": [
      {"measurement": "pTAU aggregation / pTAU expression", "setting": "[1]", "result": "significantly reduced"}
    ]},
    {"compound": "CCNC(=O)[C@H]1O[C@@H](n2cnc3c(N)nc(NCCc4ccc(CCC(=O)O)cc4)nc32)[C@H](O)[C@@H]1O", "note": "[CGS21680]", "values": [
      {"measurement": "γH2AX expression (DNA damage)", "setting": "[2]", "result": "significantly decreased; also recorded: decreased DNA damage"},
      {"measurement": "γH2AX expression (DNA damage)", "setting": "[3]", "result": "significantly decreased; also recorded: decreased DNA damage"}
    ]},
    {"compound": "O=C1NC(=O)C(c2ccccc2[N+](=O)[O-])=C1Nc1ccc(O)c(Cl)c1", "note": "[SB415286]", "values": [
      {"measurement": "pTAU aggregation / pTAU expression", "setting": "[1]", "result": "significantly reduced"}
    ]},
    {"compound": "NC1=N[C@H](O)[C@H]2[C@H]3O[C@]4(O)O[C@@H]([C@@H](O)[C@@]2(N1)[C@@H]4O)[C@]3(O)CO", "note": "[TTX, tetrodotoxin]", "values": [
      {"measurement": "inward Na+ currents", "setting": "[4]", "result": "could be blocked"},
      {"measurement": "sodium channel-mediated inward currents", "setting": "[4]", "result": "blocked"}
    ]},
    {"compound": "RepSox", "values": [
      {"measurement": "efficiency of iENP-6F generation", "setting": "[5]", "result": "significantly improved"}
    ]}
  ]
}
